Here are results for four molecules from PMC3968228 (Cancer chemotherapy and pharmacology, 2014).

The conditions of data set [1]: with ritonavir; cited from earlier work.
For data set [2] the following is noted: three new patients on ritonavir-based cART, docetaxel 70 to 100 mg/m^2; cited from earlier work.
The conditions of data set [3]: for elimination pattern of docetaxel concentration-time profile: docetaxel 20 mg/kg i.v., male FVB mice.
Setting [4] is: male, FVB, mouse, plasma, iv, 20 mg/kg.

For the molecule `CC(C)c1nc(CN(C)C(=O)N[C@H](C(=O)N[C@@H](Cc2ccccc2)C[C@H](O)[C@H](Cc2ccccc2)NC(=O)OCc2cncs2)C(C)C)cs1` [ritonavir, Ritonavir], the “oral bioavailability of docetaxel” value in data set [1] is given as 130-160 % of control.
On to `CC(=O)O[C@@]12CO[C@@H]1C[C@H](O)[C@@]1(C)C(=O)[C@H](O)C3=C(C)[C@@H](OC(=O)[C@H](O)[C@@H](NC(=O)OC(C)(C)C)c4ccccc4)C[C@@](O)([C@@H](OC(=O)c4ccccc4)[C@H]21)C3(C)C` [Docetaxel], for which the toxicity entry in data set [2] is “severe toxicities”. The “elimination pattern of docetaxel concentration-time profile” value (“elimination pattern” for short) in data set [3] (plasma) is reported as “triphasic”. In data set [3] (setting [4]), this molecule had an AUC(0-inf) of 10.3 µg·h/mL, a Cmax of 18.1 ± 2.2 µg/mL, a clearance of 1.93 L/h/kg and a concentration at 24 hr of 0.009 ± 0.0007 µg/mL.
On to `CC(=O)N1CCN(c2ccc(OCC3COC(Cn4ccnc4)(c4ccc(Cl)cc4Cl)O3)cc2)CC1` (stereo not shown) [ketoconazole, Ketoconazole], for which the “elimination pattern” value in data set [3] (plasma) is given as “biphasic”.
For the molecule `O=C1Nc2ccc(Cl)cc2[C@@](C#CC2CC2)(C(F)(F)F)O1` [efavirenz, Efavirenz], the “effect on docetaxel exposure (AUC)” value in data set [3] (CYP3A4 inducers p.o. x4d before docetaxel 20 mg/kg i.v.) is “did not have a significant effect”. Further, the “elimination pattern” value in data set [3] (plasma) is listed as “triphasic”.

The AUC(0-inf) is the area under the concentration-time curve extrapolated to infinity. A high value points to more exposure. Broadly, the Cmax is the maximum level reached in the sampled fluid or tissue. The clearance is a measure of how efficiently the substance is removed, as volume per time. A higher clearance goes with efficient removal.
